Assay results from article PMC10452110, “Indole-3-Acetamido-Polyamines as Antimicrobial Agents and Antibiotic Adjuvants” (Biomolecules, 2023).
Values after ≈ are worked out from the molar mass of the structure shown. Like-named read-outs stand apart in the source and are kept apart here.

Key:
[1] = tested on: Staphylococcus aureus (ATCC 25923); assay: Intrinsic antimicrobial activity (MIC) against S. aureus; format: cell-based; conditions: ATCC25923, S. aureus ATCC 25923, mean (n = 3), read-out: MIC S. a
Experimental: (§1) The susceptibility of bacterial strains Staphylococcus aureus (ATCC 25923), Escherichia coli (ATCC 25922) and Pseudomonas aeruginosa (ATCC 27853) to antibiotics and compounds was determined using previously reported protocols. Additional antimicrobial evaluation against MRSA (ATCC 43300), Klebsiella pneumoniae (ATCC 700603), Acinetobacter baumannii (ATCC 19606), Candida albicans (ATCC 90028) and Cryptococcus neoformans (ATCC 208821) was undertaken at the Community for Open Antimicrobial Drug Discovery at The University of Queensland (Australia) according to their standard protocols, as reported previously.

[2] = Cytotoxicity assay; format: cell-based; conditions: human; HEK293 cells; mean (n = 2); read-out: Cytotoxicity: concentration of compound at 50% cytotoxicity (IC50)
Experimental: Cytotoxicity assays were conducted using the protocols previously reported.

[3] = tested on: E. coli ATCC 25922; assay: Enhancement of erythromycin action against E. coli; format: cell-based, Escherichia coli; conditions: erythromycin at 10.9 µM
Experimental: (§2) Antibiotic enhancer concentrations were determined using previously reported protocols.

[4] = tested on: P. aeruginosa ATCC 27853; assay: Enhancement of doxycycline action against P. aeruginosa; format: cell-based, Pseudomonas aeruginosa; conditions: doxycycline at 4.5 µM
Experimental: as §2

[5] = tested on: Pseudomonas aeruginosa (ATCC 27853); assay: Intrinsic antimicrobial activity (MIC) against P. aeruginosa; format: cell-based; conditions: ATCC27853, P. aeruginosa ATCC 27853, mean (n = 3), read-out: MIC P. a
Experimental: as §1

[6] = tested on: human red blood cells; assay: Hemolytic assay; format: cell-based; conditions: mean (n = 2)
Experimental: Hemolysis assays were conducted using the protocols previously reported.

[7] = tested on: Escherichia coli (ATCC 25922); assay: Intrinsic antimicrobial activity (MIC) against E. coli; format: cell-based; conditions: ATCC25922, E. coli ATCC 25922, mean (n = 3), read-out: MIC E. c
Experimental: as §1

[8] = tested on: MRSA (ATCC 43300); assay: Intrinsic antimicrobial activity (MIC) against MRSA; format: cell-based; conditions: Staphylococcus aureus, read-out: MIC MRSA
Experimental: as §1

[9] = tested on: Cryptococcus neoformans (ATCC 208821); assay: Intrinsic antifungal activity (MIC) against C. neoformans; format: cell-based; conditions: ATCC208821, C. neoformans ATCC 208821, mean (n = 2), read-out: MIC C. n
Experimental: as §1

[10] = tested on: Candida albicans (ATCC 90028); assay: Intrinsic antifungal activity (MIC) against C. albicans; format: cell-based; conditions: ATCC90028, C. albicans ATCC 90028, mean (n = 2), read-out: MIC C. a
Experimental: as §1

SMILES: COc1cccc2c(CC(=O)NCCCNCCCCCCCCNCCCNC(=O)Cc3c[nH]c4c(OC)cccc34)c[nH]c12.O=C(O)C(F)(F)F.O=C(O)C(F)(F)F [Compound 19d, N^1,N^8-Bis(3-(2-(7-methoxy-1H-indol-3-yl)acetamido)propyl)octane-1,8-diaminium 2,2,2-trifluoroacetate]
- MIC [1]: 116 µM
- IC50 [2]: > 37 µM
- Eryth/E. c: concentration required to restore erythromycin activity (combination MIC) [3]: > 232 µM
- Dox/P. a fold change (ratio between intrinsic MIC of the test compound and combination MIC) [4]: 1 fold
- Dox/P. a: concentration required to restore doxycycline activity (combination MIC) [4]: > 232 µM
- MIC [5]: > 232 µM
- Hemolysis: concentration of compound at 10% hemolytic activity (HC10) [6]: >37 µM
- MIC [7]: > 232 µM
- MIC ([8]; MRSA ATCC 43300, mean (n = 2)): 37.2 µM
- MIC [9]: ≤ 0.29 µM
- MIC [10]: > 37 µM

SMILES: Cc1cccc2c(CC(=O)NCCCNCCCCCCCCNCCCNC(=O)Cc3c[nH]c4c(C)cccc34)c[nH]c12.O=C(O)C(F)(F)F.O=C(O)C(F)(F)F [Compound 20d, N^1,N^8-Bis(3-(2-(7-methyl-1H-indol-3-yl)acetamido)propyl)octane-1,8-diaminium 2,2,2-trifluoroacetate]
- MIC [1]: 30.2 µM
- IC50 [2]: > 39 µM
- Eryth/E. c: concentration required to restore erythromycin activity (combination MIC) [3]: 241 µM
- Dox/P. a fold change (ratio between intrinsic MIC of the test compound and combination MIC) [4]: 1 fold
- Dox/P. a: concentration required to restore doxycycline activity (combination MIC) [4]: > 241 µM
- MIC [5]: > 241 µM
- MIC [7]: 241 µM
- MIC ([8]; MRSA ATCC 43300, mean (n = 2)): < 0.2 µM
- MIC [9]: < 0.2 µM
- MIC [10]: 38.6 µM

SMILES: O=C(Cc1c[nH]c2c(F)cccc12)NCCCNCCCCCCCCCCCCNCCCNC(=O)Cc1c[nH]c2c(F)cccc12.O=C(O)C(F)(F)F.O=C(O)C(F)(F)F [Compound 18f, N^1,N^12-Bis(3-(2-(7-fluoro-1H-indol-3-yl)acetamido)propyl)dodecane-1,12-diaminium 2,2,2-trifluoroacetate]
- MIC [1]: 7 µM
- IC50 [2]: 27.2 µM
- Eryth/E. c: concentration required to restore erythromycin activity (combination MIC) [3]: 14.0 µM
- Dox/P. a fold change (ratio between intrinsic MIC of the test compound and combination MIC) [4]: 1 fold
- Dox/P. a: concentration required to restore doxycycline activity (combination MIC) [4]: 224 µM
- MIC [5]: 224 µM
- Hemolysis: concentration of compound at 10% hemolytic activity (HC10) [6]: ≤0.28 µM
- MIC [7]: 28 µM
- MIC ([8]; MRSA ATCC 43300, mean (n = 2)): ≤ 0.28 µM
- MIC [9]: ≤ 0.28 µM
- MIC [10]: ≤ 0.28 µM

SMILES: O=C(Cc1c[nH]c2c(F)cccc12)NCCCNCCCCCCCNCCCNC(=O)Cc1c[nH]c2c(F)cccc12.O=C(O)C(F)(F)F.O=C(O)C(F)(F)F [Compound 18c, N^1,N^7-Bis(3-(2-(7-fluoro-1H-indol-3-yl)acetamido)propyl)heptane-1,7-diaminium 2,2,2-trifluoroacetate]
- MIC [1]: 30.4 µM
- IC50 [2]: > 39 µM
- Eryth/E. c: concentration required to restore erythromycin activity (combination MIC) [3]: 243 µM
- Dox/P. a fold change (ratio between intrinsic MIC of the test compound and combination MIC) [4]: > 1 fold
- Dox/P. a: concentration required to restore doxycycline activity (combination MIC) [4]: 243 µM
- MIC [5]: > 243 µM
- Hemolysis: concentration of compound at 10% hemolytic activity (HC10) [6]: 1.94 µM
- MIC [7]: > 243 µM
- MIC ([8]; MRSA ATCC 43300, mean (n = 2)): ≤ 0.3 µM
- MIC [9]: ≤ 0.3 µM
- MIC [10]: 38.9 µM

SMILES: OC(Cn1cncn1)(Cn1cncn1)c1ccc(F)cc1F [fluconazole, reference compound]
- MIC [9]: 26 µM (≈ 7.96 µg/mL)
- MIC [10]: 0.4 µM (≈ 0.123 µg/mL)

SMILES: Cc1cccc2c(CC(=O)NCCCNCCCCCCNCCCNC(=O)Cc3c[nH]c4c(C)cccc34)c[nH]c12.O=C(O)C(F)(F)F.O=C(O)C(F)(F)F [Compound 20b, N^1,N^6-Bis(3-(2-(7-methyl-1H-indol-3-yl)acetamido)propyl)hexane-1,6-diaminium 2,2,2-trifluoroacetate]
- MIC [1]: 62.4 µM
- IC50 [2]: > 40 µM
- Eryth/E. c: concentration required to restore erythromycin activity (combination MIC) [3]: 62.4 µM
- Dox/P. a fold change (ratio between intrinsic MIC of the test compound and combination MIC) [4]: > 1 fold
- Dox/P. a: concentration required to restore doxycycline activity (combination MIC) [4]: 250 µM
- MIC [5]: > 250 µM
- Hemolysis: concentration of compound at 10% hemolytic activity (HC10) [6]: 9.24 µM
- MIC [7]: 250 µM
- MIC ([8]; MRSA ATCC 43300, mean (n = 2)): ≤ 0.31 µM
- MIC [9]: ≤ 0.31 µM
- MIC [10]: 40 µM

SMILES: COc1cccc2c(CC(=O)NCCCNCCCCNCCCNC(=O)Cc3c[nH]c4c(OC)cccc34)c[nH]c12.O=C(O)C(F)(F)F.O=C(O)C(F)(F)F [Compound 19a, N^1,N^4-Bis(3-(2-(7-methoxy-1H-indol-3-yl)acetamido)propyl)butane-1,4-diaminium 2,2,2-trifluoroacetate]
- MIC [1]: 124 µM
- IC50 [2]: > 40 µM
- Eryth/E. c: concentration required to restore erythromycin activity (combination MIC) [3]: > 249 µM
- Dox/P. a fold change (ratio between intrinsic MIC of the test compound and combination MIC) [4]: 1 fold
- Dox/P. a: concentration required to restore doxycycline activity (combination MIC) [4]: > 249 µM
- MIC [5]: > 249 µM
- Hemolysis: concentration of compound at 10% hemolytic activity (HC10) [6]: >40 µM
- MIC [7]: > 249 µM
- MIC ([8]; MRSA ATCC 43300, mean (n = 2)): 19.9 µM
- MIC [9]: 19.9 µM
- MIC [10]: > 40 µM

SMILES: COc1cccc2c(CC(=O)NCCCNCCCCCCCCCCNCCCNC(=O)Cc3c[nH]c4c(OC)cccc34)c[nH]c12.O=C(O)C(F)(F)F.O=C(O)C(F)(F)F [Compound 19e, N^1,N^10-Bis(3-(2-(7-methoxy-1H-indol-3-yl)acetamido)propyl)decane-1,10-diaminium 2,2,2-trifluoroacetate]
- MIC [1]: 28.1 µM
- IC50 [2]: > 36 µM
- Eryth/E. c: concentration required to restore erythromycin activity (combination MIC) [3]: 225 µM
- Dox/P. a fold change (ratio between intrinsic MIC of the test compound and combination MIC) [4]: > 1 fold
- Dox/P. a: concentration required to restore doxycycline activity (combination MIC) [4]: 225 µM
- MIC [5]: > 225 µM
- MIC [7]: > 225 µM
- MIC ([8]; MRSA ATCC 43300, mean (n = 2)): < 0.2 µM
- MIC [9]: < 0.2 µM
- MIC [10]: > 36 µM

SMILES: Cc1cccc2c(CC(=O)NCCCNCCCCNCCCNC(=O)Cc3c[nH]c4c(C)cccc34)c[nH]c12.O=C(O)C(F)(F)F.O=C(O)C(F)(F)F [Compound 20a, N^1,N^4-Bis(3-(2-(7-methyl-1H-indol-3-yl)acetamido)propyl)butane-1,4-diaminium 2,2,2-trifluoroacetate]
- MIC [1]: 32.3 µM
- IC50 [2]: > 41 µM
- Eryth/E. c: concentration required to restore erythromycin activity (combination MIC) [3]: 64.7 µM
- Dox/P. a fold change (ratio between intrinsic MIC of the test compound and combination MIC) [4]: 1 fold
- Dox/P. a: concentration required to restore doxycycline activity (combination MIC) [4]: > 259 µM
- MIC [5]: > 259 µM
- Hemolysis: concentration of compound at 10% hemolytic activity (HC10) [6]: 4.11 µM
- MIC [7]: 259 µM
- MIC ([8]; MRSA ATCC 43300, mean (n = 2)): ≤ 0.32 µM
- MIC [9]: ≤ 0.32 µM
- MIC [10]: 41.4 µM

SMILES: O=C(N[C@H](CO)[C@H](O)c1ccc([N+](=O)[O-])cc1)C(Cl)Cl [chloramphenicol, reference compound]
- MIC [1]: 1.5 to 3 µM (≈ 0.485 to 0.969 µg/mL)

SMILES: COc1cccc2c(CC(=O)NCCCNCCCCCCNCCCNC(=O)Cc3c[nH]c4c(OC)cccc34)c[nH]c12.O=C(O)C(F)(F)F.O=C(O)C(F)(F)F [Compound 19b, N^1,N^6-Bis(3-(2-(7-methoxy-1H-indol-3-yl)acetamido)propyl)hexane-1,6-diaminium 2,2,2-trifluoroacetate]
- MIC [1]: 30 µM
- IC50 [2]: > 38 µM
- Eryth/E. c: concentration required to restore erythromycin activity (combination MIC) [3]: 240 µM
- Dox/P. a fold change (ratio between intrinsic MIC of the test compound and combination MIC) [4]: 1 fold
- Dox/P. a: concentration required to restore doxycycline activity (combination MIC) [4]: > 240 µM
- MIC [5]: > 240 µM
- MIC [7]: 240 µM
- MIC ([8]; MRSA ATCC 43300, mean (n = 2)): < 0.2 µM
- MIC [9]: < 0.2 µM
- MIC [10]: > 38 µM

SMILES: [H]/N=C(/N)N[C@H]1[C@H](O)[C@@H](O)[C@H](O[C@@H]2O[C@@H](C)[C@](O)(C=O)[C@H]2O[C@@H]2O[C@@H](CO)[C@H](O)[C@@H](O)[C@@H]2NC)[C@@H](N/C(N)=N\[H])[C@@H]1O [streptomycin, reference compound]
- MIC [1]: 21.5 µM (≈ 12.5 µg/mL)
- MIC [5]: 21.5 µM (≈ 12.5 µg/mL)
- MIC [7]: 21.5 µM (≈ 12.5 µg/mL)

SMILES: CN[C@H](CC(C)C)C(=O)N[C@H]1C(=O)N[C@@H](CC(N)=O)C(=O)N[C@H]2C(=O)N[C@H]3C(=O)N[C@H](C(=O)N[C@H](C(=O)O)c4cc(O)cc(O)c4-c4cc3ccc4O)[C@H](O)c3ccc(c(Cl)c3)Oc3cc2cc(c3O[C@@H]2O[C@H](CO)[C@@H](O)[C@H](O)[C@H]2O[C@H]2C[C@](C)(N)[C@H](O)[C@H](C)O2)Oc2ccc(cc2Cl)[C@H]1O [vancomycin, reference compound]
- MIC [8]: 0.7 µM (≈ 1.01 µg/mL)

SMILES: CC/C(=C(\c1ccccc1)c1ccc(OCCN(C)C)cc1)c1ccccc1 [tamoxifen, reference compound]
- IC50 [2]: 24 µM
